Data published in ChEMBL document CHEMBL1156618, “Design, synthesis and in vitro antitumor activity of 4-aminoquinoline and 4-aminoquinazoline derivatives targeting EGFR tyrosine kinase” (Bioorg Med Chem, 2008).
Calls of active or inactive are those of the source. No cut-off for these calls is given here.

Test system: MCF7
Assay: Cytotoxicity against human MCF7 cells after 48 hrs by SRB assay
Format: functional, cell-based

`CCOc1ccc2nc(C)cc(Nc3ccc(S(=O)(=O)NC(=N)N)cc3)c2c1` showed an IC50 of 19.2 µM.

In the case of `CCOc1ccc2nc(C)cc(Nc3cccc(O)c3)c2c1`, the IC50 was 2.84 µM.

Work on `CCOc1ccc2nc(C)cc(N3CCN(C(=O)c4ccco4)CC3)c2c1` yielded an IC50 of 4.31 µM.

In the case of `CCOc1ccc2nc(C)cc(Nc3ccc(S(=O)(=O)Nc4nccs4)cc3)c2c1`, the Activity was “inactive”.

Work on `CCOc1ccc2nc(C)cc(Nc3ccc(S(=O)(=O)Nc4ncccn4)cc3)c2c1` yielded an IC50 of 3.96 µM.

For `COc1cc2nc(Cl)nc(N3CCN(S(=O)(=O)c4ccc(C)cc4)CC3)c2cc1OC`, the IC50 was 1.08 µM.

`CCOc1ccc2nc(C)cc(Nc3ccc(S(=O)(=O)Nc4cc(C)on4)cc3)c2c1` was tested, and the IC50 was 13.8 µM.

Molecule `CCOc1ccc2nc(C)cc(Nc3cc(OC)c(OC)cc3C(=O)OC)c2c1` has an IC50 of 1.67 µM.

For `CCOc1ccc2nc(C)cc(Nc3ccc(Cl)cc3Cl)c2c1`, the IC50 was 4.38 µM.

With `COc1cc2nc(Cl)nc(Nc3ccc(S(=O)(=O)Nc4nccs4)cc3)c2cc1OC` the IC50 was 0.13 µM.

Work on `COc1cc2nc(Cl)nc(Nc3ccc(S(=O)(=O)Nc4cc(C)on4)cc3)c2cc1OC` yielded an IC50 of 1.98 µM.
